Test results as given in PMC6826492, “Experimental and Computational Study of the Antioxidative Potential of Novel Nitro and Amino Substituted Benzimidazole/Benzothiazole-2-Carboxamides with Antiproliferative Activity” (Antioxidants, 2019).
Where a name gives a salt, the structure may show the parent alone. Read-outs that look alike come from different tables or passages of the source.

Key:
[1] = cited from earlier work; for N–H BDE: in water ref 48
[2] = Ferric reducing/antioxidant power (FRAP assay); assay type: biochemical; design: key to FRAP: –: Very low activity; conditions: means ± standard deviation; absorbance at 593 nm
Experimental: The FRAP method was carried out according to previously described procedures with some modifications to be compatible with an assay on a 96-well microplate. All tests were done in triplicate, while the obtained results were averaged and reported as Fe^2+ equivalents (Fe^2+ µmol).
By using the FRAP assay, we investigated the reducing power of investigated systems, which was monitored by the corresponding changes in the absorbance at 593 nm. This method is based on the ability of systems to reduce the ferric tripyridyl triazine complex (TPTZ) to the ferrous state (Fe^2+), which can be seen by an intense blue color. […] Good reducing ability was shown by the trimethoxy substituted benzimidazole-2-carboxamide 14 bearing the amino group (1102.5 ± 14.1 mmolFe^2+/mmolC).

[3] = test system: HCT 116 (colon carcinoma); assay: Antiproliferative activity in vitro (MTT assay); assay type: cell-based, human; conditions: 72 h incubation, concentration that causes 50% growth inhibition, read-out: IC50 HCT116
Experimental: (§1) The experiments were performed on four human cell lines, including HCT 116 (colon carcinoma), H 460 (lung carcinoma), MCF-7 (breast carcinoma), and HEK 293 (human embryonic kidney cells), in line with previously published experimental procedures. Briefly, the cells were grown in DMEM medium with the addition of 10% fetal bovine serum (FBS), 2 mM L-glutamine, 100 U/mL penicillin, and 100 µg/mL streptomycin, and cultured as monolayers at 37 °C in a humidified atmosphere with 5% CO2. Cells were seeded at 2 × 10^3 cells/well in a standard 96-well microtiter plates and left to attach for 24 h. The next day, a test compound was added in five serial 10-fold dilutions. The rate of cell growth was evaluated after 72 h of incubation with MTT assays. The obtained results are expressed as IC50 values, calculated from the concentration-response curve using linear regression analysis by fitting the test concentrations that give PG values above and below the reference value (i.e., 50%). Each test was performed in quadruplicate in at least two individual experiments.

H 460 (lung carcinoma) = assay: Antiproliferative activity in vitro (MTT assay); assay type: cell-based, human; conditions: 72 h incubation, concentration that causes 50% growth inhibition
Experimental: as §1

MCF-7 (breast carcinoma) = assay: Antiproliferative activity in vitro (MTT assay); assay type: cell-based, human; conditions: 72 h incubation, concentration that causes 50% growth inhibition
Experimental: as §1

[4] = DPPH free radical scavenging; assay type: biochemical; design: key to DPPH IC50: –: Very low activity; conditions: after 30 min of incubation with 100 μM DPPH
Experimental: The reducing activity of investigated systems was achieved by the DPPH method according to previously described procedures with modifications to assure the use in a 96-well microplate. Briefly, equal volumes of various concentrations of tested molecules (dissolved in DMSO) were added to the solution of DPPH (final concentration 50 µM in absolute ethanol). Ethanol and DMSO were used as control solutions in line with earlier reports.

[5] = test system: HEK 293 (human embryonic kidney cells); assay: Cytotoxic activity on non-cancerous cells (MTT assay); assay type: cell-based; conditions: non-tumor cell line, 72 h incubation, MTT, concentration that causes 50% growth inhibition
Experimental: as §1

Row | IC50 ([3]; Homo sapiens, HCT-116, 72 h) | IC50 (H 460 (lung carcinoma); Homo sapiens, NCI-H460, 72 h) | IC50 (MCF-7 (breast carcinoma); Homo sapiens, MCF7, 72 h) | DPPH IC50 [4] | IC50 [4] | Structure (SMILES) | FRAP [2] | other results
1 |  |  |  |  |  | Oc1cccc(O)c1O [1,2,3-trihydroxybenzene] |  | calculated BDE lower than that for its 1,3,5-trihydroxy analogue ([1]; in toluene ref 46): 15 kcal mol^−1
2 |  |  |  |  |  | COc1ccc(N)cc1 [4-OMe-aniline] |  | N–H BDE [1]: 87.2 kcal/mol
3 |  |  |  |  |  | N#Cc1ccc(N)cc1 [Compound 4-CN-aniline, 4-CN-aniline] |  | N–H BDE [1]: 91.8 kcal/mol
4 | 6 ± 1 µM | 6 ± 5 µM | 4 ± 0.3 µM | – ^c |  | COc1ccccc1C(=O)Nc1nc2ccc([N+](=O)[O-])cc2[nH]1 [Compound 6, 2-methoxy-N-[5(6)-nitrobenzimidazol-2-yl]benzamide] | 123.5 ± 2.8 mmolFe^2+/mmolC | IC50 ([5]; Homo sapiens, HEK293): 3 ± 0.6 µM
5 | 3 ± 0.2 µM | 4 ± 2 µM | 2 ± 0.9 µM | – |  | COc1ccc(C(=O)Nc2nc3ccc([N+](=O)[O-])cc3[nH]2)c(OC)c1 [Compound 7, 2,4-dimethoxy-N-[5(6)-nitrobenzimidazol-2-yl]benzamide] | 139.6 ± 16.9 mmolFe^2+/mmolC | IC50 ([5]; Homo sapiens, HEK293): 2 ± 0.3 µM
6 | 44 ± 25 µM | 46 ± 3 µM | 9 ± 1 µM | – |  | COc1ccccc1C(=O)Nc1nc2ccc([N+](=O)[O-])cc2s1 [Compound 9, 2-methoxy-N-(6-nitrobenzothiazol-2-yl)benzamide] | 6.7 ± 0.6 mmolFe^2+/mmolC | 
7 | 9 ± 7 µM | 20 ± 3 µM | 5 ± 2 µM | – |  | COc1ccc(C(=O)Nc2nc3ccc([N+](=O)[O-])cc3s2)c(OC)c1 [Compound 10, 2,4-dimethoxy-N-(6-nitrobenzothiazol-2-yl)benzamide] | – | IC50 ([5]; Homo sapiens, HEK293): 5 ± 1 µM
8 | 37 ± 0.8 µM | 23 ± 4 µM | 17 ± 9 µM | – |  | COc1cc(C(=O)Nc2nc3ccc([N+](=O)[O-])cc3s2)cc(OC)c1OC [Compound 11, 3,4,5-trimethoxy-N-(6-nitrobenzothiazol-2-yl)benzamide] | 155.5 ± 3.0 mmolFe^2+/mmolC | 
9 | 48 ± 4 µM | 39 ± 11 µM |  |  | 28.9 ± 1.03 µM | COc1ccccc1C(=O)Nc1nc2ccc(N)cc2[nH]1 [Compound 12, N-[5(6)-aminobenzimidazol-2-yl]-2-methoxybenzamide] | 256.3 ± 2.8 mmolFe^2+/mmolC | IC50 (MCF-7 (breast carcinoma)): 53 ± 9 µM
10 |  |  | 20 ± 4 µM |  | 17.7 ± 2.81 µM | COc1ccc(C(=O)Nc2nc3ccc(N)cc3[nH]2)c(OC)c1 [Compound 13, N-[5(6)-aminobenzimidazol-2-yl]-2,4-dimethoxybenzamide] | 238.4 ± 2.1 mmolFe^2+/mmolC | IC50 [3]: 17 ± 8 µM; IC50 (H 460 (lung carcinoma)): 24 ± 8 µM
11 | 6 ± 4 µM | 3 ± 0.9 µM | 3 ± 2 µM | – |  | COc1ccccc1C(=O)Nc1nc2ccc(N)cc2s1 [Compound 15, N-(6-aminobenzothiazol-2-yl)-2-methoxybenzamide] | 163.4 ± 4.7 mmolFe^2+/mmolC | 
12 | 6 ± 1 µM | 43 ± 29 µM | 5 ± 0.3 µM | – |  | COc1ccc(C(=O)Nc2nc3ccc(N)cc3s2)c(OC)c1 [Compound 16, N-(6-aminobenzothiazol-2-yl)-2,4-dimethoxybenzamide] | 203.6 ± 5.8 mmolFe^2+/mmolC | IC50 ([5]; Homo sapiens, HEK293): 11 ± 8 µM
13 | 28 ± 4 µM |  |  |  | 40.4 ± 0.4 µM | COc1cc(C(=O)Nc2nc3ccc(N)cc3s2)cc(OC)c1OC [Compound 17, N-(6-aminobenzothiazol-2-yl)-3,4,5-trimethoxybenzamide] | 235.4 ± 2.8 mmolFe^2+/mmolC | IC50 (H 460 (lung carcinoma)): ≥ 100 µM; IC50 (MCF-7 (breast carcinoma)): 5 ± 3 µM
14 |  |  |  |  | 9.85 ± 0.003 µM | COc1ccccc1C(=O)Nc1nc2ccc(N)cc2[nH]1 [Compound 18, N-[5(6)-aminobenzimidazol-2-yl]-2-methoxybenzamide hydrochloride] | 267.2 ± 5.0 mmolFe^2+/mmolC | IC50 [3]: 33 ± 7 µM; IC50 (H 460 (lung carcinoma)): 36 ± 8 µM; IC50 (MCF-7 (breast carcinoma)): 23 ± 2 µM
15 |  |  |  |  | 13.3 ± 0.8 µM | COc1ccc(C(=O)Nc2nc3ccc(N)cc3[nH]2)c(OC)c1 [Compound 19, N-[5(6)-aminobenzimidazol-2-yl]-2,4-dimethoxybenzamide hydrochloride] | 259.1 ± 0.6 mmolFe^2+/mmolC | IC50 [3]: ≥ 100 µM; IC50 (H 460 (lung carcinoma)): > 100 µM; IC50 (MCF-7 (breast carcinoma)): 34 ± 24 µM
16 | ≥ 100 µM | > 100 µM | 34 ± 30 µM |  | 8.06 ± 0.03 µM | COc1cc(C(=O)Nc2nc3cc(N)ccc3[nH]2)cc(OC)c1OC.Cl [Compound 20, N-(6-aminobenzimidazol-2-yl)-3,4,5-trimethoxybenzamide hydrochloride] | 267.4 ± 1.4 mmolFe^2+/mmolC | 
17 |  |  |  |  | 4 ± 0.04 µM | COc1ccc(C(=O)Nc2nc3ccc(N)cc3s2)c(OC)c1.Cl [Compound 22, N-(6-aminobenzothiazol-2-yl)-2,4-dimethoxybenzamide hydrochloride] | 244.2 ± 3.0 mmolFe^2+/mmolC | IC50 [3]: 8 ± 2 µM; IC50 (H 460 (lung carcinoma)): 50 ± 8 µM; IC50 (MCF-7 (breast carcinoma)): 3 ± 0.2 µM; IC50 [5]: 11 ± 1 µM
18 |  |  |  |  | 1.5 ± 0.5 µM | COc1cc(C(=O)Nc2nc3ccc(N)cc3s2)cc(OC)c1OC.Cl [Compound 23, N-(6-aminobenzothiazol-2-yl)-3,4,5-trimethoxybenzamide hydrochloride] | 241.3 ± 1.6 mmolFe^2+/mmolC | IC50 [3]: 50 ± 11 µM; IC50 (H 460 (lung carcinoma)): 34 ± 9 µM
19 | 61 ± 0.1 µM | 42 ± 20 µM | 42 ± 7 µM | – |  | O=C(Nc1nc2ccc([N+](=O)[O-])cc2[nH]1)c1ccccc1O [Compound 24, 2-hydroxy-N-[5(6)-nitrobenzimidazol-2-yl]benzamide] | 39.1 ± 2.0 mmolFe^2+/mmolC | 
20 | 31 ± 4 µM | 18 ± 0.01 µM | 28 ± 6 µM | – |  | COc1ccc(C(=O)Nc2nc3ccc([N+](=O)[O-])cc3[nH]2)c(O)c1 [Compound 25, 2-hydroxy-4-methoxy-N-[5(6)-nitrobenzimidazol-2-yl]benzamide] | 150.4 ± 3.4 mmolFe^2+/mmolC | 
21 | 6 ± 1 µM | 3 ± 0.2 µM | 2 ± 0.6 µM | – |  | O=C(Nc1nc2ccc([N+](=O)[O-])cc2s1)c1ccccc1O [Compound 27, 2-hydroxy-N-(6-nitrobenzothiazol-2-yl)benzamide] | – | IC50 ([5]; Homo sapiens, HEK293): 3 ± 1 µM
22 | 7 ± 0.4 µM | 8 ± 1 µM | 10 ± 8 µM | – |  | COc1ccc(C(=O)Nc2nc3ccc([N+](=O)[O-])cc3s2)c(O)c1 [Compound 28, 2-hydroxy-4-methoxy-N-(6-nitrobenzothiazol-2-yl)benzamide] | 39.8 ± 1.6 mmolFe^2+/mmolC | IC50 ([5]; Homo sapiens, HEK293): 4 ± 2 µM
23 | 46 ± 0.2 µM | > 100 µM | 30 ± 0.8 µM |  | 42.5 ± 0.5 µM | Nc1ccc2nc(NC(=O)c3ccccc3O)[nH]c2c1 [Compound 30, N-[5(6)-aminobenzimidazol-2-yl]-2-hydroxybenzamide] | 272.6 ± 7.1 mmolFe^2+/mmolC | 
24 | 37 ± 7 µM | 75 ± 27 µM | ≥ 100 µM |  | 9.2 ± 0.6 µM | COc1ccc(C(=O)Nc2nc3ccc(N)cc3[nH]2)c(O)c1 [Compound 31, N-[5(6)-aminobenzimidazol-2-yl]-2-hydroxy-4-methoxybenzamide] | 258.4 ± 6.4 mmolFe^2+/mmolC | 
25 |  |  |  |  | 29.5 ± 0.1 µM | COc1ccc(C(=O)Nc2nc3ccc(N)cc3[nH]2)c(O)c1 [Compound 32, N-[5(6)-aminobenzimidazol-2-yl]-2-hydroxy-4-methoxybenzamide] | 304.3 ± 6.4 mmolFe^2+/mmolC | IC50 [3]: 50 ± 13 µM; IC50 (H 460 (lung carcinoma)): ≥ 100 µM; IC50 (MCF-7 (breast carcinoma)): 80 ± 4 µM
26 | 5 ± 2 µM | 0.1 ± 0.04 µM | 1 ± 0.7 µM |  |  | COc1cc([C@@H]2c3cc4c(cc3[C@@H](O[C@@H]3O[C@@H]5CO[C@@H](C)O[C@H]5[C@H](O)[C@H]3O)[C@H]3COC(=O)[C@H]23)OCO4)cc(OC)c1O [Etoposide, reference compound] |  | IC50 ([5]; Homo sapiens, HEK293): 1.6 ± 0.4 µM
27 |  |  |  |  |  | CN [Me–NH3^+] |  | BDE ([1]; monocationic, in acetonitrile ref 39): 114.6 kcal/mol
